Converted amounts (≈) assume the structure as drawn. Where two headings read alike, the source gives them in different places.

Data on 3 molecules can be found in US7812008B2, “9-substituted tetracyclines” (Wyeth LLC, priority 2005, dated 2010).

One experiment relates to E. coli GC2270 (tet(M)). In words: MIC broth microdilution, E. coli GC2270 (tet(M)). Format: cell-based. The following applies: MHBII, 18-22 hours at 35° C. The protocol: (§1) Methods for in Vitro Antibacterial Evaluation
(§2) The minimum inhibitory concentration (MIC)
(§3) Antimicrobial susceptibility testing. The in vitro activities of representative examples of antibiotics of the invention are determined by the broth microdilution method as recommended by the National Committee for Clinical Laboratory Standards (NCCLS) (1). Mueller-Hinton II broth (MHBII)(BBL Cockeysville, Md.) is the medium employed in the testing procedures. Microtiter plates containing serial dilutions of each antimicrobial agent are inoculated with each organism to yield the appropriate density (10^5 CFU/ml) in a 100 μl final volume. The plates are incubated for 18-22 hours at 35° C. in ambient air. […] NCCLS. 2000. Methods for Dilution Antimicrobial Susceptibility Tests for Bacteria That Grow Aerobically; Approved Standards: M7-A5, vol. 20. National Committe for Clinical Laboratory Standards, Wayne, Pa.
On the technique in general: Dilution methods test growth across graded concentrations, often in twofold steps.

In experiment [1] the test system is E. coli GC4559 (parent GC4560). In words: MIC broth microdilution, E. coli GC4559 (parent GC4560). Type of experiment: cell-based. The following applies: MHBII, 18-22 hours at 35° C. On the procedure:
as §1, §2, §3

Experiment [2] deals with E. coli GC4560 (IMP mutant). As to the kind of experiment: MIC broth microdilution, E. coli GC4560 (IMP mutant). Type of experiment: cell-based. The following applies: MHBII, 18-22 hours at 35° C. On the procedure:
as §1, §2, §3

The test system of experiment [3] is E. coli GC2203 (ATCC Control). In words: MIC broth microdilution, E. coli GC2203 (ATCC Control). Format: cell-based. The following applies: MHBII, 18-22 hours at 35° C. On the procedure: as §1, §2, §3
The subject of the next experiment is E. coli GC1073 (tet(B)). As to the kind of experiment: MIC broth microdilution, E. coli GC1073 (tet(B)). Format: cell-based. The following applies: MHBII, 18-22 hours at 35° C. The protocol:
as §1, §2, §3

For experiment [4], the system named is S. aureus GC1131 (Clinical). As to the kind of experiment: MIC broth microdilution, S. aureus GC1131 (Clinical). Format: cell-based. As to conditions: MHBII, 18-22 hours at 35° C. On the procedure:
as §1, §2, §3

Experiment [5] has as its system S. aureus GC6466 (tet(M)). As to the kind of experiment: MIC broth microdilution, S. aureus GC6466 (tet(M)). As to conditions: MHBII, 18-22 hours at 35° C. Type of experiment: cell-based. On the procedure: as §1, §2, §3
Experiment [6] concerns S. aureus GC6467 (tet(M) + (K)). In words: MIC broth microdilution, S. aureus GC6467 (tet(M) + (K)). Type of experiment: cell-based. The following applies: MHBII, 18-22 hours at 35° C. The protocol: as §1, §2, §3
In experiment [7] the test system is S. aureus GC1079 (tet(K)). In words: MIC broth microdilution, S. aureus GC1079 (tet(K)). Format: cell-based. The following applies: MHBII, 18-22 hours at 35° C. The protocol:
as §1, §2, §3

The subject of experiment [8] is S. aureus GC4536 (Smith MP -In Vivo). As to the kind of experiment: MIC broth microdilution, S. aureus GC4536 (Smith MP -In Vivo). Type of experiment: cell-based. The following applies: MHBII, 18-22 hours at 35° C. The protocol:
as §1, §2, §3

For experiment [9], the system named is S. aureus GC2216 (ATCC Control). In words: MIC broth microdilution, S. aureus GC2216 (ATCC Control). Type of experiment: cell-based. As to conditions: MHBII, 18-22 hours at 35° C. The protocol:
as §1, §2, §3

For experiment [10], the system named is E. faecalis GC4555 (ATCC Control). As to the kind of experiment: MIC broth microdilution, E. faecalis GC4555 (ATCC Control). The following applies: MHBII, 18-22 hours at 35° C. Type of experiment: cell-based. On the procedure:
as §1, §2, §3

The test system of experiment [11] is E. faecalis GC2267 (tet(L) + (M) + (S)). In words: MIC broth microdilution, E. faecalis GC2267 (tet(L) + (M) + (S)). Type of experiment: cell-based. As to conditions: MHBII, 18-22 hours at 35° C. The protocol: as §1, §2, §3
Experiment [12] concerns E. faecalis GC2242 (Van-resistant). In words: MIC broth microdilution, E. faecalis GC2242 (Van-resistant). Format: cell-based. As to conditions: MHBII, 18-22 hours at 35° C. On the procedure:
as §1, §2, §3

Experiment [13] concerns S. pneumoniae* GC4465 (Clinical). As to the kind of experiment: MIC broth microdilution, S. pneumoniae GC4465 (Clinical). Type of experiment: cell-based. As to conditions: 18-22 hours at 35° C. The protocol: as §1, §2, §3
Experiment [14] relates to S. pneumoniae* GC1894 (Clinical). In words: MIC broth microdilution, S. pneumoniae GC1894 (Clinical). Type of experiment: cell-based. As to conditions: 18-22 hours at 35° C. On the procedure: as §1, §2, §3
Experiment [15] relates to S. pyogenes* GC4563 (Clinical). In words: MIC broth microdilution, S. pyogenes GC4563 (Clinical). As to conditions: 18-22 hours at 35° C. Format: cell-based. The protocol: as §1, §2, §3
In experiment [16] the test system is M. catarrhalis* GC6907 (Clinical). In words: MIC broth microdilution, M. catarrhalis GC6907 (Clinical). Type of experiment: cell-based. The following applies: 18-22 hours at 35° C. The protocol: as §1, §2, §3
For experiment [17], the system named is H. influenzae<> GC6896 (ATCC Control). In words: MIC broth microdilution, H. influenzae GC6896 (ATCC Control). Format: cell-based. As to conditions: 18-22 hours at 35° C. On the procedure:
as §1, §2, §3

For experiment [18], the system named is C. albicans GC3066 ATCC (Control). As to the kind of experiment: MIC broth microdilution, C. albicans GC3066 ATCC (Control). Type of experiment: cell-based. The following applies: 18-22 hours at 35° C. The protocol:
as §1, §2, §3

The subject of experiment [19] is Staphylococcal aureus Smith M P. In words: In vivo antibacterial evaluation, acute lethal infection in mice. As to conditions: Mus musculus; single oral dose 30 minutes after intraperitoneal challenge; female CD-1 mice; 7 day survival ratios, 3 tests pooled; read-out: SOD* ED50. On the procedure:
In Vivo Antibacterial Evaluation: The therapeutic effects of representative examples of the invention are determined against acute lethal infection with Staphylococcal aureus Smith M P, Female mice, strain CD-1 (Charles River Laboratoties), ca. 20 grams, are challenged by an intraperitoneal injection of sufficient bacteria (suspended in broth or hog mucin) to kill non-treated controls within 24-28 hours. Antibacterial agents, contained in 0.5 ml of 0.2% aqueous agar, are administered subcutaneously or orally 30 minutes after injection. When an oral dosing schedule is used, animal are deprived of food for 5 hours before and 2 hours after injection. Five mice are treated at each dose level. The 7 day survival ratios from 3 separate tests are pooled for calculation of median effective dose (ED50).

For experiment [20] the test system is unchanged. In words: MIC reported in Table 2 beside the in vivo ED50. Type of experiment: cell-based. The following applies: Staphylococcus aureus, infecting strain S. aureus Smith MP. The protocol:
Antimicrobial susceptibility testing. The in vitro activities of representative examples of antibiotics of the invention are determined by the broth microdilution method as recommended by the National Committee for Clinical Laboratory Standards (NCCLS) (1). Mueller-Hinton II broth (MHBII)(BBL Cockeysville, Md.) is the medium employed in the testing procedures. Microtiter plates containing serial dilutions of each antimicrobial agent are inoculated with each organism to yield the appropriate density (10^5 CFU/ml) in a 100 μl final volume. The plates are incubated for 18-22 hours at 35° C. in ambient air. […] NCCLS. 2000. Methods for Dilution Antimicrobial Susceptibility Tests for Bacteria That Grow Aerobically; Approved Standards: M7-A5, vol. 20. National Committe for Clinical Laboratory Standards, Wayne, Pa. In Vivo Antibacterial Evaluation: The therapeutic effects of representative examples of the invention are determined against acute lethal infection with Staphylococcal aureus Smith M P, Female mice, strain CD-1 (Charles River Laboratoties), ca. 20 grams, are challenged by an intraperitoneal injection of sufficient bacteria (suspended in broth or hog mucin) to kill non-treated controls within 24-28 hours. Antibacterial agents, contained in 0.5 ml of 0.2% aqueous agar, are administered subcutaneously or orally 30 minutes after injection. When an oral dosing schedule is used, animal are deprived of food for 5 hours before and 2 hours after injection. Five mice are treated at each dose level. The 7 day survival ratios from 3 separate tests are pooled for calculation of median effective dose (ED50).

For experiment [21] the test system is unchanged. In words: In vivo antibacterial evaluation, acute lethal infection in mice. The following applies: Mus musculus, iv, 168 h; single intraveneous dose; female CD-1 mice; 7 day survival ratios, 3 tests pooled; read-out: SIV* ED50.

In general, ED50 refers to the dose at which the effect has come halfway, by size or by number of responders. Broadly, the MIC is the smallest concentration in the dilution series that meets the test's criterion for growth inhibition. Lower therefore signals greater potency. Take `CN(C)c1cc(NC(=O)CN(O)Cc2ccccc2)c(O)c2c1C[C@H]1C[C@H]3[C@H](N(C)C)C(O)=C(C(N)=O)C(=O)[C@@]3(O)C(O)=C1C2=O` [Example 6, (4S,4aS,5aR,12aS)-9-[(N-benzyl-N-hydroxyglycyl)amino]-4,7-bis(dimethylamino)-3,10,12,12a-tetrahydroxy-1,11-dioxo-1,4,4a,5,5a,6,11,12a-octahydrotetracene-2-carboxamide]: the “minimum inhibitory concentration (MIC)” value was 16 in the experiment with E. coli GC2270 (tet(M)); 8 in [1]; 0.25 in [2]; 16 in experiment [3]; 32 in the experiment with E. coli GC1073 (tet(B)); 4 in experiment [4]. The “minimum inhibitory concentration (MIC)” value was found to be 2 in experiment [5]; 64 in experiment [6]; 8 in experiment [7]; 2 in [8]; 2 in [9]; 1 in [10]. The “minimum inhibitory concentration (MIC)” value worked out at 8 in [11]; 2 in [12]; 0.12 in experiment [13]; 0.25 in experiment [14]; 0.25 in experiment [15]; 0.50 in experiment [16]. Moreover, the results for the “minimum inhibitory concentration (MIC)” value in experiment [17] and in experiment [18] were 2 and over 64, respectively. Moreover, the ED50 in experiment [19] is over 16 mg/kg; in experiment [21] it was over 4 mg/kg. In addition, the MIC in experiment [20] was 2 µg/mL (≈ 3.15 µM).

In the case of `CN(C)c1cc(NC(=O)CN(O)C2CCCCC2)c(O)c2c1C[C@H]1C[C@H]3[C@H](N(C)C)C(O)=C(C(N)=O)C(=O)[C@@]3(O)C(O)=C1C2=O` [Example 1, (4S,4aS,5aR,12aS)-9-[(N-cyclohexyl-N-hydroxyglycyl)amino]-4,7-bis(dimethylamino)-3,10,12,12a-tetrahydroxy-1,11-dioxo-1,4,4a,5,5a,6,11,12a-octahydrotetracene-2-carboxamide], the “minimum inhibitory concentration (MIC)” value in the experiment with E. coli GC2270 (tet(M)) is on record as 8; in experiment [1] it was 8; in [2], 0.25; in experiment [3] it was 2; with E. coli GC1073 (tet(B)), 16; in [4], 4. For the same molecule, the “minimum inhibitory concentration (MIC)” value is listed as 8 in experiment [5]; over 64 in experiment [6]; 16 in experiment [7]; 4 in experiment [8]; 4 in experiment [9]; 1 in experiment [10]. Moreover, the “minimum inhibitory concentration (MIC)” value in experiment [11] stood at 16; in [12], 2; in experiment [13] it was 0.25; in [14] it was 0.25; in experiment [15] it was 0.12; in [16], 0.50. Moreover, the “minimum inhibitory concentration (MIC)” value is 2 in experiment [17] and over 64 in experiment [18]. For the same molecule, the ED50 in experiment [19] worked out at 7.75 mg/kg; in experiment [21] it was 1.56 mg/kg. Besides, inhibition of growth in [20] (MIC) required 1 µg/mL (≈ 1.59 µM).

For `CN(C)c1cc(NC(=O)CN2CCCCO2)c(O)c2c1C[C@H]1C[C@H]3[C@H](N(C)C)C(O)=C(C(N)=O)C(=O)[C@@]3(O)C(O)=C1C2=O` [Example 8, (4S,4aS,5aR,12aS)-4,7-bis(dimethylamino)-3,10,12,12a-tetrahydroxy-9-[(1,2-oxazinan-2-ylacetyl)amino]-1,11-dioxo-1,4,4a,5,5a,6,11,12a-octahydrotetracene-2-carboxamide], the “minimum inhibitory concentration (MIC)” value in the experiment with E. coli GC2270 (tet(M)) is reported as over 64; in experiment [1] it was over 64; in experiment [2], 2; in [3], over 64; in the experiment with E. coli GC1073 (tet(B)), over 64; in experiment [4], 4. Moreover, the “minimum inhibitory concentration (MIC)” value is recorded as 2 in experiment [5]; 64 in experiment [6]; 16 in experiment [7]; 2 in experiment [8]; 2 in [9]; 2 in experiment [10]. The “minimum inhibitory concentration (MIC)” value in experiment [11] was 8; in [12], 2; in experiment [13], 1; in [14], 0.50; in experiment [15] it was 1; in experiment [16] it was 1. The “minimum inhibitory concentration (MIC)” value was 64 in [17] and over 64 in [18]. Further, the results for the ED50 in experiment [19] and in experiment [21] were 3.59 mg/kg and 0.56 mg/kg, respectively. This molecule returned an MIC in [20] of 2 µg/mL (≈ 3.34 µM).
